For this data set, the system named is CCRIS mutagenicity, Ames/micronucleus/aberration tests. As to the kind of experiment: CCRIS mutagenicity studies.
Setting [1] is: Test System: AMES SALMONELLA TYPHIMURIUM, Strain/Indicator: TA98, Metabolic Activation: RAT, LIVER, S-9, AROCLOR 1254, Method: STANDARD PLATE.
Where [2] appears, read: Test System: AMES SALMONELLA TYPHIMURIUM, Strain/Indicator: TA100, Metabolic Activation: NONE, Method: STANDARD PLATE.
Where [3] appears, read: Test System: AMES SALMONELLA TYPHIMURIUM, Strain/Indicator: TA100, Metabolic Activation: RAT, LIVER, S-9, AROCLOR 1254, Method: STANDARD PLATE.
Setting [4] is: Test System: AMES SALMONELLA TYPHIMURIUM, Strain/Indicator: TA1537, Metabolic Activation: RAT, LIVER, S-9, AROCLOR 1254, Method: STANDARD PLATE.
Setting [5] is: Test System: AMES SALMONELLA TYPHIMURIUM, Strain/Indicator: TA98, Metabolic Activation: NONE, Method: PREINCUBATION
[6] abbreviates: Test System: AMES SALMONELLA TYPHIMURIUM, Strain/Indicator: TA100, Metabolic Activation: NONE, Method: PREINCUBATION
Where [7] appears, read: Test System: AMES SALMONELLA TYPHIMURIUM, Strain/Indicator: TA1535, Metabolic Activation: NONE, Method: PREINCUBATION
The mark [8] stands for this setting: Test System: AMES SALMONELLA TYPHIMURIUM, Strain/Indicator: TA1537, Metabolic Activation: NONE, Method: PREINCUBATION

Activity calls are given as the source filed them. How the calls were made is not given here.

Take `C=C(C)C(C)=O`: the mutagenic call runs as follows: (Test System: AMES SALMONELLA TYPHIMURIUM, Strain/Indicator: TA98, Metabolic Activation: HAMSTER, LIVER, S-9, AROCLOR 1254, Method: STANDARD PLATE) “inactive; negative”; (Test System: AMES SALMONELLA TYPHIMURIUM, Strain/Indicator: TA98, Metabolic Activation: NONE, Method: STANDARD PLATE) “inactive; negative”; under setting [1], “inactive; negative”; (Test System: AMES SALMONELLA TYPHIMURIUM, Strain/Indicator: TA100, Metabolic Activation: HAMSTER, LIVER, S-9, AROCLOR 1254, Method: STANDARD PLATE) “inactive; negative”; under setting [2], “inactive; negative”; under setting [3], “inactive; negative”. For the same compound, the mutagenic call is “inactive; negative” (Test System: AMES SALMONELLA TYPHIMURIUM, Strain/Indicator: TA1535, Metabolic Activation: HAMSTER, LIVER, S-9, AROCLOR 1254, Method: STANDARD PLATE); “inactive; negative” (Test System: AMES SALMONELLA TYPHIMURIUM, Strain/Indicator: TA1535, Metabolic Activation: NONE, Method: STANDARD PLATE); “inactive; negative” (Test System: AMES SALMONELLA TYPHIMURIUM, Strain/Indicator: TA1535, Metabolic Activation: RAT, LIVER, S-9, AROCLOR 1254, Method: STANDARD PLATE); “inactive; negative” (Test System: AMES SALMONELLA TYPHIMURIUM, Strain/Indicator: TA1537, Metabolic Activation: HAMSTER, LIVER, S-9, AROCLOR 1254, Method: STANDARD PLATE); “inactive; negative” (Test System: AMES SALMONELLA TYPHIMURIUM, Strain/Indicator: TA1537, Metabolic Activation: NONE, Method: STANDARD PLATE); “inactive; negative” under setting [4]. Moreover, the mutagenic call is, setting by setting: (Test System: AMES SALMONELLA TYPHIMURIUM, Strain/Indicator: TA1538, Metabolic Activation: HAMSTER, LIVER, S-9, AROCLOR 1254, Method: STANDARD PLATE) “inactive; negative”; (Test System: AMES SALMONELLA TYPHIMURIUM, Strain/Indicator: TA1538, Metabolic Activation: NONE, Method: STANDARD PLATE) “inactive; negative”; (Test System: AMES SALMONELLA TYPHIMURIUM, Strain/Indicator: TA1538, Metabolic Activation: RAT, LIVER, S-9, AROCLOR 1254, Method: STANDARD PLATE) “inactive; negative”; (Test System: Mouse lymphoma, Strain/Indicator: L5178Y (tk+/tk-), Metabolic Activation: None, Method: Suspension/plate) “active; positive”; (Test System: Mouse lymphoma, Strain/Indicator: L5178Y (tk+/tk-), Metabolic Activation: Rat, Liver, S-9, Aroclor 1254, Method: Suspension/plate) “active; positive”.

With `Brc1ccccc1`, the mutagenic call (End Point: IN VITRO CHROMOSOMAL ABERRATIONS, Test System: CHINESE HAMSTER OVARY CELLS, Metabolic Activation: NONE) is “inactive; negative”; the mutagenic call (End Point: IN VITRO CHROMOSOMAL ABERRATIONS, Test System: CHINESE HAMSTER OVARY CELLS, Metabolic Activation: RAT, LIVER, S-9, AROCLOR 1254) is “inactive; negative”; the mutagenic call (Test System: AMES SALMONELLA TYPHIMURIUM, Strain/Indicator: TA98, Metabolic Activation: HAMSTER, LIVER, S-9, AROCLOR 1254, Method: PREINCUBATION) was “inactive; negative”; the mutagenic call under setting [5] was “inactive; negative”; the mutagenic call (Test System: AMES SALMONELLA TYPHIMURIUM, Strain/Indicator: TA98, Metabolic Activation: RAT, LIVER, S-9, AROCLOR 1254, Method: PREINCUBATION) is “inactive; negative”; the mutagenic call (Test System: AMES SALMONELLA TYPHIMURIUM, Strain/Indicator: TA100, Metabolic Activation: HAMSTER, LIVER, S-9, AROCLOR 1254, Method: PREINCUBATION) was “inactive; negative”. Besides, the mutagenic call under setting [6] is “inactive; negative”; the mutagenic call (Test System: AMES SALMONELLA TYPHIMURIUM, Strain/Indicator: TA100, Metabolic Activation: RAT, LIVER, S-9, AROCLOR 1254, Method: PREINCUBATION) was “inactive; negative”; the mutagenic call (Test System: AMES SALMONELLA TYPHIMURIUM, Strain/Indicator: TA1535, Metabolic Activation: HAMSTER, LIVER, S-9, AROCLOR 1254, Method: PREINCUBATION) was “inactive; negative”; the mutagenic call under setting [7] is “inactive; negative”; the mutagenic call (Test System: AMES SALMONELLA TYPHIMURIUM, Strain/Indicator: TA1535, Metabolic Activation: RAT, LIVER, S-9, AROCLOR 1254, Method: PREINCUBATION) was “inactive; negative”; the mutagenic call (Test System: AMES SALMONELLA TYPHIMURIUM, Strain/Indicator: TA1537, Metabolic Activation: HAMSTER, LIVER, S-9, AROCLOR 1254, Method: PREINCUBATION) was “inactive; negative”. For the same compound, the mutagenic call under setting [8] is “inactive; negative” and the mutagenic call (Test System: AMES SALMONELLA TYPHIMURIUM, Strain/Indicator: TA1537, Metabolic Activation: RAT, LIVER, S-9, AROCLOR 1254, Method: PREINCUBATION) is “inactive; negative”.

With `CCCCCCCCBr`, the mutagenic call by setting is: under setting [5], “inactive; negative”; (Test System: AMES SALMONELLA TYPHIMURIUM, Strain/Indicator: TA98, Metabolic Activation: RAT LIVER S-9, PHENOBARBITAL AND BETA-NAPHTHOFLAVONE, Method: PREINCUBATION) “inactive; negative”; under setting [6], “inactive; negative”; (Test System: AMES SALMONELLA TYPHIMURIUM, Strain/Indicator: TA100, Metabolic Activation: RAT LIVER S-9, PHENOBARBITAL AND BETA-NAPHTHOFLAVONE, Method: PREINCUBATION) “inactive; negative”; (Test System: AMES SALMONELLA TYPHIMURIUM, Strain/Indicator: TA102, Metabolic Activation: NONE, Method: PREINCUBATION) “inactive; negative”; (Test System: AMES SALMONELLA TYPHIMURIUM, Strain/Indicator: TA102, Metabolic Activation: RAT LIVER S-9, PHENOBARBITAL AND BETA-NAPHTHOFLAVONE, Method: PREINCUBATION) “inactive; negative”. For the same compound, the mutagenic call is “inactive; negative” (Test System: AMES SALMONELLA TYPHIMURIUM, Strain/Indicator: TA104, Metabolic Activation: NONE, Method: PREINCUBATION); “inactive; negative” (Test System: AMES SALMONELLA TYPHIMURIUM, Strain/Indicator: TA104, Metabolic Activation: RAT LIVER S-9, PHENOBARBITAL AND BETA-NAPHTHOFLAVONE, Method: PREINCUBATION); “inactive; negative” under setting [7]; “inactive; negative” (Test System: AMES SALMONELLA TYPHIMURIUM, Strain/Indicator: TA1535, Metabolic Activation: RAT LIVER S-9, PHENOBARBITAL AND BETA-NAPHTHOFLAVONE, Method: PREINCUBATION); “inactive; negative” under setting [8]; “inactive; negative” (Test System: AMES SALMONELLA TYPHIMURIUM, Strain/Indicator: TA1537, Metabolic Activation: RAT LIVER S-9, PHENOBARBITAL AND BETA-NAPHTHOFLAVONE, Method: PREINCUBATION). In addition, the mutagenic call was “inactive; negative” (Test System: E.COLI, Strain/Indicator: WP2UVRA/PKM101, Metabolic Activation: NONE, Method: PREINCUBATION); “inactive; negative” (Test System: E.COLI, Strain/Indicator: WP2UVRA/PKM101, Metabolic Activation: RAT LIVER S-9, PHENOBARBITAL AND BETA-NAPHTHOFLAVONE, Method: PREINCUBATION); “inactive; negative” (Test System: E.COLI, Strain/Indicator: WP2UVRA, Metabolic Activation: NONE, Method: PREINCUBATION); “inactive; negative” (Test System: E.COLI, Strain/Indicator: WP2UVRA, Metabolic Activation: RAT LIVER S-9, PHENOBARBITAL AND BETA-NAPHTHOFLAVONE, Method: PREINCUBATION).

With `Cc1ccc(C(=O)O[C@@H](C(=O)O)[C@@H](OC(=O)c2ccc(C)cc2)C(=O)O)cc1` (tested in a mixture with another compound), the mutagenic call under setting [1] was “active; positive”, the mutagenic call under setting [2] was “inactive; negative”, the mutagenic call under setting [3] is “active; positive” and the mutagenic call under setting [4] was “active; positive”.

The record behind these values is PubChem BioAssay AID1259407 (Chemical Carcinogenesis Research Information System (CCRIS), 2018).
